Data on four compounds can be found in patent US20100021940A1, “Method for Determining the Activity of a Protease in a Sample” (ASTRAZENECA AB, priority 2006, published 2010).

“And” between values parts separate entries of the source, which are not always exact repeats. Equal entries are not always repeated.

One test has as its system MMP. Put plainly: MMP activity in synovial fluid (reporter release, HPLC). The test is classed as biochemical, human. The procedure: Synovial fluid (SF) was obtained from patients with rheumatoid arthritis (7 subjects) and systemic lupus erythematosus (SLE) (1 subject).
The amount of each sample was adjusted so that approximately 4 mg of total protein was used in the assay (Table 13).
The samples were made up to 180 μl with a buffer consisting of 50 mM Tricine pH 7.5, 200 mM NaCl, 10 mM CaCl2, 20 μM ZnCl2 and 0.05% Brij-35.
To the samples was added 20 μl of the substrate Methyl 1-acetyl-L-prolyl-L-leucylglycyl-α-R-(4-nitrophenylamino)-glycyl-L-leucylglycinate (Example 1.2) solution (10 mM in methanol). After 3 h incubation at 37° C., the reaction was stopped with 5 μl 200 mM EDTA. The samples were filtered through a precolumn (Waters OASIS HLB Icc, part no. 94225, pre-conditioned with 1 ml of ethanol followed by 1 ml water) which was eluted with 1 ml water and 1 ml of 90% ethanol. The samples were evaporated to dryness under a stream of nitrogen, redissolved in 200 μl 50% ethanol and vigorously mixed with vortex mixer and centrifuged (1000 g, 2 min). Of the supernatant, 10-160 μl aliquots were analysed for the reporter 4-nitroaniline with HPLC (detection as in example 3 or with UV at […]). A standard curve was obtained by from samples spiked with quantified amounts of the reporter (4NA) and treated in the same way as the analytical samples.

For the next test, the target named is T1, MMP1 (Homo sapiens, UniProt P03956).
T1 sequence (P03956 100-469): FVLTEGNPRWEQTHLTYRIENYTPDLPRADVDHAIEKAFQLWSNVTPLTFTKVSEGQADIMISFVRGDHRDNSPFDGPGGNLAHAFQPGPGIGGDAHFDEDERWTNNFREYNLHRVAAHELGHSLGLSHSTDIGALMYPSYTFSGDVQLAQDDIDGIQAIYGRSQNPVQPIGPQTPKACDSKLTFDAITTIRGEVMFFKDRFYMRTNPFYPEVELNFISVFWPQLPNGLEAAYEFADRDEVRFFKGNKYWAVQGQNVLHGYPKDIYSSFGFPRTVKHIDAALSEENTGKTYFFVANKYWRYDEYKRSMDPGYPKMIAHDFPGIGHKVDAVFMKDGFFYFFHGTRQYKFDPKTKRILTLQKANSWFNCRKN
Put plainly: Activity of purified MMP on substrate (reporter release). Format: biochemical. Particulars: Table 1b; MMP1. From the text: (§1) In order to confirm the specificity of the substrates for various MMPs, standard enzymatic assays were adapted to monitor the release of reporter. The reporter was either analysed by a LC-MS method as described in Example 3a, or by a LC-UV method as described in Example 4. A protocol for testing against other matrix metalloproteinases, including MMP9, using expressed and purified pro MMP is described, for instance, by C.

The next test has as its target MMP3 (Homo sapiens, UniProt P08254). The description is as above. Format: biochemical. The following applies: Table 1b; MMP3.
Description: as §1

Another test has as its target T2, MMP8 (Homo sapiens, UniProt P22894).
T2 construct: purchased Calbiochem
The test is described as above. The test is classed as biochemical. The following applies: Table 1b; MMP8. As to the method: In order to confirm the specificity of the substrates for various MMPs, standard enzymatic assays were adapted to monitor the release of reporter. The reporter was either analysed by a LC-MS method as described in Example 3a, or by a LC-UV method as described in Example 4. Purified pro-MMP8 is purchased from Calbiochem. The enzyme (at 10 μg/ml) is activated by p-amino-phenyl-mercuric acetate (APMA) at 1 mM for 2.5 h, 35° C. The activated enzyme can be used to monitor activity of substrates as follows: MMP8 (200 ng/ml final concentration) is incubated for 90 minutes at 35° C.

In the next test the test system is MMPs. Description: Cleavage of separated diastereomers by MMPs to liberate the reporter. The test is classed as biochemical.
The test system of the next test is MMP9. Description: Activity of purified MMP on substrate (reporter release). The test is classed as biochemical, human. The following applies: Table 1b; MMP9. From the text: In order to confirm the specificity of the substrates for various MMPs, standard enzymatic assays were adapted to monitor the release of reporter. The reporter was either analysed by a LC-MS method as described in Example 3a, or by a LC-UV method as described in Example 4. […] The enzyme can be used to monitor activity of substrates as follows: […]

Chain of MMP3 (P08254 100-477): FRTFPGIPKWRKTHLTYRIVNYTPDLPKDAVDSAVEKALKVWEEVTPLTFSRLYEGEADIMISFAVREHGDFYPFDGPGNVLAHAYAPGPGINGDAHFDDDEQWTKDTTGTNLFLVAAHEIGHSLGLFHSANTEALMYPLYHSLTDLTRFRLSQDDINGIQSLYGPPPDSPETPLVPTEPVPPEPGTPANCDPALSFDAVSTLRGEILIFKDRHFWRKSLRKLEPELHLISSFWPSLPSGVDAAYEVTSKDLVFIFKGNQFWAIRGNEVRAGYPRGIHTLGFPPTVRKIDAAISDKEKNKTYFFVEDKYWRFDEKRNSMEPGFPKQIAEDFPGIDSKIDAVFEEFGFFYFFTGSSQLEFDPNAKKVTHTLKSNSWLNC
T2 sequence (P22894 101-467): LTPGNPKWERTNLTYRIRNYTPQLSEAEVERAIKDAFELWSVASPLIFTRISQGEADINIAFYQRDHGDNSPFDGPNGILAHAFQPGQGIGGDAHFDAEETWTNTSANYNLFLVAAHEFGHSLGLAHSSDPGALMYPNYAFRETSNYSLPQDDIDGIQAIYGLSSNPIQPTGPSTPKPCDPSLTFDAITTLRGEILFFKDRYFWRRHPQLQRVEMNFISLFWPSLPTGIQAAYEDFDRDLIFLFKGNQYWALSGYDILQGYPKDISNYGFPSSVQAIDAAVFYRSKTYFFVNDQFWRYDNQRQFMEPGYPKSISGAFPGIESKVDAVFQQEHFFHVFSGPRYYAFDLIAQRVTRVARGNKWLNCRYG

`COC(=O)CNC(=O)[C@H](CC(C)C)NC(=O)[C@@H](NC(=O)CNC(=O)[C@H](CC(C)C)NC(=O)[C@@H]1CCCN1C(C)=O)OCc1ccc(-c2ccccc2)cc1` (single isomer, unassigned) [Example 1.3, Methyl 1-acetyl-L-prolyl-L-leucylglycyl-α-S-(biphenyl-4-ylmethoxy)-glycyl-L-leucylglycinate]: the “release of reporter 4-biphenylmethanol” value in the test with MMP (pooled sample of synovial fluid from all subjects in Table 13, same procedure) stood at 33.2 nmol/ml SF. The “Activity of selected substrates with MMPs” value at MMP1 was 35.4 units/s (molRXH/molEnz * s); at MMP3, 5.5 units/s (molRXH/molEnz * s); at MMP8, 26.9 units/s (molRXH/molEnz * s); with MMP9, 63.6 units/s (molRXH/molEnz * s). Further, in the test with MMPs, the “Cleavage by MMPs to liberate the reporter” value (“Cleavage by MMPs” below) is “rapidly cleaved by MMPs”.

On to `COC(=O)CNC(=O)[C@H](CC(C)C)NC(=O)[C@@H](NC(=O)CNC(=O)[C@H](CC(C)C)NC(=O)[C@@H]1CCCN1C(C)=O)Nc1ccc([N+](=O)[O-])cc1` [Example 1.2, Methyl 1-acetyl-L-prolyl-L-leucylglycyl-α-R-(4-nitrophenylamino)-glycyl-L-leucylglycinate], for which the “4NA released (MMP activity in synovial fluid)” value in the test on MMP (synovial fluid of individual subjects (rheumatoid arthritis, SLE), approx. 4 mg total protein, 3 h at 37° C.) is 94.4 nmol/ml SF and 17.4 nmol/ml SF and 15.9 nmol/ml SF and 23.9 nmol/ml SF and 26.4 nmol/ml SF and 16.5 nmol/ml SF and 20.6 nmol/ml SF and 12.0 nmol/ml SF. Moreover, in the test with MMPs, the “Cleavage by MMPs” value was “rapidly cleaved by MMPs”.

As to `COC(=O)CNC(=O)[C@H](CC(C)C)NC(=O)[C@@H](NC(=O)CNC(=O)[C@H](CC(C)C)NC(=O)[C@@H]1CCCN1C(C)=O)Nc1ccc(-c2nnc(-c3ccc(C)cc3)o2)cc1` [Example 1.4, Methyl 1-acetyl-L-prolyl-L-leucylglycyl-α-R-[4-(5-p-tolyl-[1,3,4]oxadiazol-2-yl)-phenylamino]-glycyl-L-leucylglycinate], the “Activity of selected substrates with MMPs” value at MMP1 was 0.00 units/s (molRXH/molEnz * s); on MMP3, 0.00 units/s (molRXH/molEnz * s); on MMP8, 0.05 units/s (molRXH/molEnz * s); with MMP9 it was 0.58 units/s (molRXH/molEnz * s). The “Cleavage by MMPs” value in the test on MMPs is listed as “rapidly cleaved by MMPs”.

Take `CC(=O)N1CCC[C@H]1C(=O)N[C@@H](CC(C)C)C(=O)NCC(=O)N[C@@H](Nc1ccc([N+](=O)[O-])cc1)C(=O)N[C@@H](Cc1ccccc1)C(=O)Nc1ccccc1` [Example 1.5, 1-acetyl-L-prolyl-L-leucylglycyl-α-R-(4-nitrophenylamino)-glycyl-N-phenyl-L-phenylalaninamide]: the “Activity of selected substrates with MMPs” value on MMP1 was 2.48 units/s (molRXH/molEnz * s); at MMP3 it was 0.18 units/s (molRXH/molEnz * s); at MMP8 it was 11.4 units/s (molRXH/molEnz * s); with MMP9, 11.5 units/s (molRXH/molEnz * s). The “Cleavage by MMPs” value in the test on MMPs is listed as “rapidly cleaved by MMPs”.
